Measurements taken from patent publication US8703963B2, “Derivative N-thiolated 2-oxazolidinone antibiotics” (University of South Florida, priority 2005, dated 2014).
Marks after values point to notes of the source that are not given here.

Legend:
[1] = system: MRSA USF658; assay: Kirby-Bauer agar disk diffusion; details: 20 μg on 6 mm disk, 24 h at 37° C., triplicate
[2] = system: MRSA USF653; assay: Kirby-Bauer agar disk diffusion; details: 20 μg on 6 mm disk, 24 h at 37° C., triplicate
[3] = system: MRSA USF657; assay: Kirby-Bauer agar disk diffusion; details: 20 μg on 6 mm disk, 24 h at 37° C., triplicate
[4] = system: MRSA USF652; assay: Kirby-Bauer agar disk diffusion; details: 20 μg on 6 mm disk, 24 h at 37° C., triplicate
[5] = system: MRSA USF655; assay: Kirby-Bauer agar disk diffusion; details: 20 μg on 6 mm disk, 24 h at 37° C., triplicate
[6] = system: MRSA USF656; assay: Kirby-Bauer agar disk diffusion; details: 20 μg on 6 mm disk, 24 h at 37° C., triplicate
[7] = system: MRSA USF654; assay: Kirby-Bauer agar disk diffusion; details: 20 μg on 6 mm disk, 24 h at 37° C., triplicate
[8] = system: MRSA USF659; assay: Kirby-Bauer agar disk diffusion; details: 20 μg on 6 mm disk, 24 h at 37° C., triplicate
[9] = system: S. aureus 849 (ATCC 25923); assay: Kirby-Bauer agar disk diffusion; details: for zone of growth inhibition, average diameter: S. aureus 849 (ATCC 25923), 20 μg on 6 mm disk, 24 h at 37° C., triplicate; for S. aureus (Inhibition), median zone of inhibition: S. Aureaus strain 849, c = partial inhibition within this diameter
[10] = system: MRSA USF920 (ATCC 33591); assay: Kirby-Bauer agar disk diffusion; details: 20 μg on 6 mm disk, 24 h at 37° C., triplicate
[11] = system: MRSA USF919 (ATCC 43300); assay: Kirby-Bauer agar disk diffusion; details: 20 μg on 6 mm disk, 24 h at 37° C., triplicate
[12] = system: B. cereus; assay: Kirby-Bauer agar disk diffusion; format: cell-based; details: 20 μg on 6 mm disk, 24 h at 37° C., triplicate
[13] = system: B. subtilus; assay: Kirby-Bauer agar disk diffusion; format: cell-based; details: 20 μg on 6 mm disk, 24 h at 37° C., triplicate
[14] = system: B. globigii; assay: Kirby-Bauer agar disk diffusion; format: cell-based; details: 20 μg on 6 mm disk, 24 h at 37° C., triplicate
[15] = system: B. megaterium; assay: Kirby-Bauer agar disk diffusion; format: cell-based; details: 20 μg on 6 mm disk, 24 h at 37° C., triplicate
[16] = system: B. coagulans; assay: Kirby-Bauer agar disk diffusion; format: cell-based; details: 20 μg on 6 mm disk, 24 h at 37° C., triplicate
[17] = system: B. thurigensis; assay: Kirby-Bauer agar disk diffusion; format: cell-based; details: 20 μg on 6 mm disk, 24 h at 37° C., triplicate
[18] = system: Bacillus anthracis (Sterne strain); format: cell-based; details: B. anthracis (Sterne strain); 20 μg on 6 mm disk; 24 h at 37° C.; triplicate
[19] = system: MRSA; assay: Broth MIC; format: cell-based, Staphylococcus aureus
[20] = system: S. aureus; assay: Broth MIC; format: cell-based, Staphylococcus aureus
[21] = system: 10 strains of MRSA (652-659, 919-920); assay: Kirby-Bauer zones of inhibition, 10 strains of MRSA; details: for MRSA (inhibition), median diameter of zone of inhibition: median of 10 strains of MRSA (652-659, 919-920), c = partial inhibition within this diameter

Compound	zone of growth inhibition, average diameter [1]	zone of growth inhibition, average diameter [2]	zone of growth inhibition, average diameter [3]	zone of growth inhibition, average diameter [4]	zone of growth inhibition, average diameter [5]	zone of growth inhibition, average diameter [6]	zone of growth inhibition, average diameter [7]	zone of growth inhibition, average diameter [8]	zone of growth inhibition, average diameter [9]	zone of growth inhibition, average diameter [10]	zone of growth inhibition, average diameter [11]	zone of growth inhibition, average diameter [12]	zone of growth inhibition, average diameter [13]	zone of growth inhibition, average diameter [14]	zone of growth inhibition, average diameter [15]	zone of growth inhibition, average diameter [16]	zone of growth inhibition, average diameter [17]	zone of growth inhibition, average diameter [18]	MRSA (inhibition), median diameter of zone of inhibition [21]	S. aureus (Inhibition), median zone of inhibition [9]	further results
COC1C(=O)N(SC)C1c1ccccc1 (racemic) [Lac, reference compound]	26 mm	30 mm	27 mm	30 mm	25 mm	28 mm	26 mm	24 mm	25 mm	–	–	–	–	–	–	–	–	–	–	–	–
CC1(C)S[C@@H]2[C@H](NC(=O)Cc3ccccc3)C(=O)N2[C@H]1C(=O)O [Pen G, penicillin G, reference compound]	19 mm	15 mm	12 mm	8 mm	14 mm	12 mm	10 mm	16 mm	33 mm	–	–	–	–	–	–	–	–	–	–	–	–
CCC(C)SN1CC(CCl)OC1=O (stereo not drawn) [compound 5]	21 mm	20 mm	22 mm	19 mm	22 mm	20 mm	22 mm	20 mm	19 mm	19 mm	19 mm	–	–	–	–	–	–	–	–	–	–
CSN1C(=O)OC[C@@H]1c1ccccc1 [compound 6]	29 mm	31 mm	29 mm	30 mm	29 mm	31 mm	29 mm	26 mm	30 mm	28 mm	30 mm	24 mm	19 mm	15 mm	18 mm	17 mm	17 mm	23 mm	–	–	–
CSN1C(=O)OC[C@H]1c1ccccc1 [compound 7]	27 mm	30 mm	27 mm	30 mm	28 mm	28 mm	26 mm	26 mm	29 mm	28 mm	28 mm	23 mm	19 mm	17 mm	20 mm	17 mm	15 mm	23 mm	–	–	broth MIC value [19]: 8 µg/mL; broth MIC value [20]: 8 µg/mL
CSN1C(=O)OC[C@@H]1C(C)C [compound 8]	16 mm	27 mm	22 mm	19 mm	22 mm	22 mm	23 mm	22 mm	20 mm	18 mm	21 mm	22 mm	17 mm	15 mm	18 mm	17 mm	16 mm	23 mm	–	–	broth MIC value [19]: 16 µg/mL; broth MIC value [20]: 16 µg/mL
CSN1C(=O)OC[C@H]1C(C)C [compound 9]	19 mm	25 mm	19 mm	12 mm	18 mm	20 mm	20 mm	22 mm	21 mm	15 mm	13 mm	15 mm	19 mm	17 mm	10 mm	0 mm	0 mm	15 mm	–	–	clarity of growth inhibition zones ([21]; Kirby-Bauer, anti-MRSA, compared with S-stereoisomer 8): incomplete growth inhibition
CSN1C(=O)OC[C@@H]1c1ccccc1 [oxazolidinone 6, 4S-(+)-N-methylthio-4-phenyl-2-oxazolidinone]	–	–	–	–	–	–	–	–	–	–	–	–	–	–	–	–	–	–	29 mm	30 mm	–
CSN1C(=O)OC[C@H]1c1ccccc1 [oxazolidinone 7, 4R-(−)-N-methylthio-4-phenyl-2-oxazolidinone]	–	–	–	–	–	–	–	–	–	–	–	–	–	–	–	–	–	–	28 mm	29 mm	–
CSN1C(=O)OC[C@@H]1C(C)C [oxazolidinone 8]	–	–	–	–	–	–	–	–	–	–	–	–	–	–	–	–	–	–	16^c mm	20^c mm	–
CSN1C(=O)OC[C@H]1C(C)C [oxazolidinone 9, 4R-(+)-N-methylthio-4-isopropyl-2-oxazolidinone]	–	–	–	–	–	–	–	–	–	–	–	–	–	–	–	–	–	–	19^c mm	21^c mm	–
